{"source": "paper PMC11172375", "about": "“Preclinical Evaluation of Biodistribution and Toxicity of [^211At]PSMA-5 in Mice and Primates for the Targeted Alpha Therapy against Prostate Cancer” (International Journal of Molecular Sciences, 2024)", "key": {"[1]": {"assay": "Hematological examination in monkeys", "assay_type": "in vivo, cynomolgus monkeys", "conditions": "for %Lymph / Hb / Ht / Platelet / RBC / WBC: monkeys, 9 MBq/kg i.v.", "protocol": "(§1) [^211At]PSMA-5 was administered intravenously to 25 mice, and its biodistribution was evaluated. For the toxicity study, three doses of [^211At]PSMA-5 (5, 12, and 35 MBq/kg, single dose) or saline were intravenously administered to 10 mice/group for the main evaluation point on day 1, and 5-mice/group for recovery evaluation on day 14, adhering to the ICH M3 (R2) guidelines. The dosage was determined based on our previous study using [^211At]NaAt. The monkeys were monitored for 24 h post-administration of [^211At]PSMA-5 (9 MBq/kg).\nMonkeys were anesthetized with intramuscular administration of ketamine (10 mg/kg) and xylazine (0.5 mg/kg) with isoflurane inhalation anesthesia. Planar and Single Photon Emission Computed Tomography (SPECT) imaging was performed in monkeys using a γ-camera system (E-cam, Siemens, Erlangen, Germany) immediately after administration to 1 h and at 3 and 24 h post-administration of [^211At]PSMA-5 (9 MBq/kg), targeting the X-rays emitted from the daughter nuclide ^211Po (energy window: 79 keV ± 20%). Subsequent image analysis was performed by setting the regions of interest using Osirix MD software (Version 13, Pixmeo SARL, Bernex, Switzerland) and PMOD software (Version 3.903, PMOD Technologies, Fällanden, Switzerland). Blood samples were obtained pre-administration and at 1, 3, and 24 h post-administration, followed by euthanasia via bloodletting at 24 h.\n(§2) A blood cell counter was used for the measurements (CB-1010; ARKRAY, Inc., Kyoto, Japan). Red blood cell count (RBC), hemoglobin concentration (Hb), hematocrit (Ht), white blood cell count (WBC), platelet count (platelet), lymphocytes (%Lymph), monocytes (%Mon), and granulocytes (%Gra) were calculated. Plasma was analyzed using a dry clinical chemistry analyzer (Spotchem D-00 QR D-02; ARKRAY, Inc., Kyoto, Japan). The levels of aspartate aminotransferase (AST), alanine aminotransferase (ALT), gamma-glutamyl transpeptidase (γ-GTP), lactate dehydrogenase (LDH), alkaline phosphatase (ALP), creatine kinase (CK), amylase (AMY), total bilirubin (TBIL), creatinine (CRE), urea nitrogen (BUN), glucose (GLU), total protein (TP), albumin (ALB), total cholesterol (TCHO), triglyceride (TG), and electrolytes (Na, K, and Cl) were measured."}, "[2]": {"assay": "Hematological examination in mice", "assay_type": "in vivo, ICR mice", "conditions": "for %Lymph / Hb / Ht / Platelet / RBC / WBC: mice", "protocol": "as §1, §2"}, "[3]": {"assay": "Biodistribution in cynomolgus monkey (planar/SPECT imaging, 24 h autopsy)", "assay_type": "in vivo", "conditions": "9 MBq/kg i.v.", "protocol": "as §1\nMonkeys were anesthetized with intramuscular administration of ketamine (10 mg/kg) and xylazine (0.5 mg/kg) with isoflurane inhalation anesthesia. Planar and Single Photon Emission Computed Tomography (SPECT) imaging was performed in monkeys using a γ-camera system (E-cam, Siemens, Erlangen, Germany) immediately after administration to 1 h and at 3 and 24 h post-administration of [^211At]PSMA-5 (9 MBq/kg), targeting the X-rays emitted from the daughter nuclide ^211Po (energy window: 79 keV ± 20%). […]\nUrine and feces samples were collected at each time point. […] Organ weights and radiation doses were measured using a γ-counter (model: 2480Wizard2, PerkinElmer) and γ-camera system (E-cam) by appropriate cross-calibration."}}}
{"smiles": "O=C(O)CC[C@H](NC(=O)N[C@@H](CCCCNC(=O)[C@@H](Cc1ccc2ccccc2c1)NC(=O)c1ccc(CNC(=O)[C@@H](CCC(=O)O)NC(=O)[C@@H](CCC(=O)O)NC(=O)Cc2ccc([211At])cc2)cc1)C(=O)O)C(=O)O", "note": "[[^211At]PSMA-5]", "values": [{"measurement": "leukopenia (mainly lymphopenia)", "setting": "[1]; cynomolgus monkeys, 9 MBq/kg, 24 h after administration", "value": "mild but significant leukopenia"}, {"measurement": "%Lymph", "setting": "[1]; 1 h", "value": "44.0 ± 16.0", "unit": "%"}, {"measurement": "Hb", "setting": "[1]; 1 h", "value": "10.3 ± 1.4", "unit": "g/dL"}, {"measurement": "Ht", "setting": "[1]; 1 h", "value": "32.9 ± 4.8", "unit": "%"}, {"measurement": "Platelet", "setting": "[1]; 1 h", "value": "263.7 ± 33.0 10^3 cell/µL"}, {"measurement": "RBC", "setting": "[1]; 1 h", "value": "4.30 ± 0.30 10^6 cell/µL"}, {"measurement": "WBC", "setting": "[1]; 1 h", "value": "10.1 ± 0.7 10^3 cell/µL"}, {"measurement": "%Lymph", "setting": "[1]; 3 h", "value": "52.0 ± 4.5", "unit": "%"}, {"measurement": "Hb", "setting": "[1]; 3 h", "value": "11.2 ± 0.8", "unit": "g/dL"}, {"measurement": "Ht", "setting": "[1]; 3 h", "value": "35.4 ± 2.5", "unit": "%"}, {"measurement": "Platelet", "setting": "[1]; 3 h", "value": "306.8 ± 41.2 10^3 cell/µL"}, {"measurement": "RBC", "setting": "[1]; 3 h", "value": "4.70 ± 0.00 10^6 cell/µL"}, {"measurement": "WBC", "setting": "[1]; 3 h", "value": "6.7 ± 1.4 10^3 cell/µL"}, {"measurement": "%Lymph", "setting": "[1]; 24 h", "value": "23.7 ± 1.1", "unit": "%"}, {"measurement": "Hb", "setting": "[1]; 24 h", "value": "9.9 ± 0.5", "unit": "g/dL"}, {"measurement": "Ht", "setting": "[1]; 24 h", "value": "31.8 ± 1.5", "unit": "%"}, {"measurement": "Platelet", "setting": "[1]; 24 h", "value": "269.7 ± 60.8 10^3 cell/µL"}, {"measurement": "RBC", "setting": "[1]; 24 h", "value": "4.20 ± 0.10 10^6 cell/µL"}, {"measurement": "WBC", "setting": "[1]; 24 h", "value": "5.3 ± 0.8 10^3 cell/µL"}, {"measurement": "blood examination versus control group", "setting": "[2]; mice, 5, 12 and 35 MBq/kg, day 1 or day 14", "value": "no significant difference"}, {"measurement": "%Lymph", "setting": "[2]; 5 MBq/kg i.v., day 1", "value": "66.3 ± 15.8", "unit": "%"}, {"measurement": "Hb", "setting": "[2]; 5 MBq/kg i.v., day 1", "value": "12.9 ± 0.4", "unit": "g/dL"}, {"measurement": "Ht", "setting": "[2]; 5 MBq/kg i.v., day 1", "value": "42.5 ± 1.4", "unit": "%"}, {"measurement": "Platelet", "setting": "[2]; 5 MBq/kg i.v., day 1", "value": "976 ± 524 10^3 cell/µL"}, {"measurement": "RBC", "setting": "[2]; 5 MBq/kg i.v., day 1", "value": "7.8 ± 0.3 10^6 cell/µL"}, {"measurement": "WBC", "setting": "[2]; 5 MBq/kg i.v., day 1", "value": "6.3 ± 4.1 10^3 cell/µL"}, {"measurement": "%Lymph", "setting": "[2]; 5 MBq/kg i.v., day 14", "value": "70 ± 8.8", "unit": "%"}, {"measurement": "Hb", "setting": "[2]; 5 MBq/kg i.v., day 14", "value": "14.4 ± 0.4", "unit": "g/dL"}, {"measurement": "Ht", "setting": "[2]; 5 MBq/kg i.v., day 14", "value": "45.4 ± 1", "unit": "%"}, {"measurement": "Platelet", "setting": "[2]; 5 MBq/kg i.v., day 14", "value": "1120 ± 555 10^3 cell/µL"}, {"measurement": "RBC", "setting": "[2]; 5 MBq/kg i.v., day 14", "value": "8.7 ± 0.2 10^6 cell/µL"}, {"measurement": "WBC", "setting": "[2]; 5 MBq/kg i.v., day 14", "value": "6.9 ± 3.3 10^3 cell/µL"}, {"measurement": "%Lymph", "setting": "[2]; 12 MBq/kg i.v., day 1", "value": "62.6 ± 14.2", "unit": "%"}, {"measurement": "Hb", "setting": "[2]; 12 MBq/kg i.v., day 1", "value": "13.0 ± 0.8", "unit": "g/dL"}, {"measurement": "Ht", "setting": "[2]; 12 MBq/kg i.v., day 1", "value": "42.6 ± 2.3", "unit": "%"}, {"measurement": "Platelet", "setting": "[2]; 12 MBq/kg i.v., day 1", "value": "1329 ± 845 10^3 cell/µL"}, {"measurement": "RBC", "setting": "[2]; 12 MBq/kg i.v., day 1", "value": "8.0 ± 0.5 10^6 cell/µL"}, {"measurement": "WBC", "setting": "[2]; 12 MBq/kg i.v., day 1", "value": "8.3 ± 4.9 10^3 cell/µL"}, {"measurement": "%Lymph", "setting": "[2]; 12 MBq/kg i.v., day 14", "value": "59.9 ± 12.1", "unit": "%"}, {"measurement": "Hb", "setting": "[2]; 12 MBq/kg i.v., day 14", "value": "13.8 ± 0.9", "unit": "g/dL"}, {"measurement": "Ht", "setting": "[2]; 12 MBq/kg i.v., day 14", "value": "43.9 ± 3", "unit": "%"}, {"measurement": "Platelet", "setting": "[2]; 12 MBq/kg i.v., day 14", "value": "922 ± 608 10^3 cell/µL"}, {"measurement": "RBC", "setting": "[2]; 12 MBq/kg i.v., day 14", "value": "8.3 ± 0.6 10^6 cell/µL"}, {"measurement": "WBC", "setting": "[2]; 12 MBq/kg i.v., day 14", "value": "6.9 ± 1.9 10^3 cell/µL"}, {"measurement": "%Lymph", "setting": "[2]; 35 MBq/kg i.v., day 1", "value": "53.5 ± 16.9", "unit": "%"}, {"measurement": "Hb", "setting": "[2]; 35 MBq/kg i.v., day 1", "value": "12.8 ± 0.7", "unit": "g/dL"}, {"measurement": "Ht", "setting": "[2]; 35 MBq/kg i.v., day 1", "value": "42.3 ± 2", "unit": "%"}, {"measurement": "Platelet", "setting": "[2]; 35 MBq/kg i.v., day 1", "value": "952 ± 444 10^3 cell/µL"}, {"measurement": "RBC", "setting": "[2]; 35 MBq/kg i.v., day 1", "value": "7.9 ± 0.3 10^6 cell/µL"}, {"measurement": "WBC", "setting": "[2]; 35 MBq/kg i.v., day 1", "value": "8.0 ± 5.2 10^3 cell/µL"}, {"measurement": "%Lymph", "setting": "[2]; 35 MBq/kg i.v., day 14", "value": "53.9 ± 6.4", "unit": "%"}, {"measurement": "Hb", "setting": "[2]; 35 MBq/kg i.v., day 14", "value": "13.6 ± 0.7", "unit": "g/dL"}, {"measurement": "Ht", "setting": "[2]; 35 MBq/kg i.v., day 14", "value": "43.1 ± 2.4", "unit": "%"}, {"measurement": "Platelet", "setting": "[2]; 35 MBq/kg i.v., day 14", "value": "1331 ± 1037 10^3 cell/µL"}, {"measurement": "RBC", "setting": "[2]; 35 MBq/kg i.v., day 14", "value": "8.4 ± 0.4 10^6 cell/µL"}, {"measurement": "WBC", "setting": "[2]; 35 MBq/kg i.v., day 14", "value": "5.4 ± 2.8 10^3 cell/µL"}, {"measurement": "cumulative fecal excretion", "setting": "[3]", "value": 11.27, "unit": "%ID"}, {"measurement": "cumulative urinary excretion", "setting": "[3]", "value": 0.46, "unit": "%ID"}]}
